This is an account of results in US8809344B2, “Compounds, compositions, and methods for control of hepatitis C viral infections” (priority 2008, dated 2014).

Series [1] deals with chimeric APV23 (FL-J6/JFH) genotype 2a HCV. Kind of series: HCV APV23 viral infectivity assay in Huh7.5 cells, 3′NTR RNA by realtime quantitative PCR. Type of series: cell-based, hepatitis C virus. The settings on record: FIG. 6; genotype 2a NS4B coding region. On the procedure: (§1) Inhibition of HCV infectivity by AP0080978 and its analogs (AP0080977, non-active enantiomer; AP0089652, racemate; and AP0080935, an aromatic, non-optically active analog of AP0080978) was assayed by exposing cells with infectious chimeric HCV virions in the presence of the compounds. This was accomplished by use of an HCV cell culture system essentially as described in Pietschmann, T. et al. (2006) 103(19): 7408-13, Proc. Natl. Acad. Sci. USA; and elsewhere. Two viral constructs were utilized to characterize inhibition of viral infectivity (FIG. 4). Construct APV23 (FL-J6/JFH) is a full-length, chimeric, genotype 2a HCV genome containing the HCV core through the NS2 first transmembrane domain coding region from the J6 HCV isolate linked to the second NS2 transmembrane domain NS3 through NS5B coding region of HCV strain JFH-1, as shown in FIG. 4 (i.e. an HCV chimera with the “C3 Junction” described in Pietschmann, T. et al. (2006) Proc. Natl. Acad. Sci. USA 103(19): 7408-13; see page 7409 and FIG. 2A of Pietschmann, T. et al.). Construct APV112 was generated by replacing nucleotides encoding amino acids 53 to 218 of the NS4B gene of the APV23 sequence with a corresponding sequence from a genotype 1b (Con1 strain).
(§2) Huh7.5 cells were plated at a density of 20,000 cells per well in 96-well plates. The cells were exposed to the chimeric HCV virions at a multiplicity of infection of 0.01. Potential inhibitory compounds were added simultaneously with the chimeric virus. Cells were incubated for 48 hours and then the levels of HCV 3′NTR and GAPDH RNA were quantified by realtime quantitative PCR. Data were analyzed by the comparative Ct method with delta-delta Ct determined relative to 1.0% DMSO. Results in FIGS. 5 and 6 are depicted as log change in 3′NTR copies relative to 1.0% DMSO.

Series [2] relates to chimeric APV112 HCV (genotype 2a with genotype 1b NS4B amino acids 53 to 218). Kind of series: HCV APV112 viral infectivity assay in Huh7.5 cells, 3′NTR RNA by realtime quantitative PCR. Type of series: cell-based, hepatitis C virus. To be noted: for Log change in 3′NTR copies relative to 1.0% DMSO (GAPDH normalized): APV112, 48 hours. As for the experimental part:
as §1, §2

In another series the test system is Huh7.5 cells. Kind of series: ATP viability assay (CellTiter-Glo) in replicon-harboring Huh7.5 cells. Type of series: cell-based, human. To be noted: 24 hours post-treatment; Huh7.5 cells harboring transient genotype 1b replicon. On the procedure:
Inhibition of HCV replication by AP0089652, AP0080978 (enantiomer 2 from Example 1) and AP0080977 (enantiomer 1 from Example 1) were assayed by exposing cells harboring an HCV genotype 1b replicons to the compounds and quantitating HCV replicon levels following exposure. The replicon used in these studies was a transient genotype 1b subgenomic replicon generated from the Con1 strain. In this replicon, the HCV internal ribosome entry site (IRES) within the 5′ non-translated region (NTR) drives expression of the first 32 amino acids of the core protein fused to humanized Renilla luciferase (hRluc). The encephalomycarditis IRES lies 3′ to the hRluc open reading frame (ORF) and drives expression of non-structural (NS) proteins NS3 through NS5B. Huh7.5 cells (U.S. patent application Ser. No. 10/534,571) harboring this replicon were seeded into 96-well plates at 20,000 cells per well in medium containing 10% FBS, 1× penicillin/streptomycin, 1× non-essential amino acids, and 100 ng/ml Fungizone. After a four hour attachment period, compound was added to wells using a five point 3-fold serial dilution series with four replicate treatments per dose. […] Compound-mediated HCV inhibition and toxicity were assayed 24 hours post-treatment using Renilla luciferase readout and an ATP viability assay (CellTiter-Glo, Promega, Madison, Wis., USA), respectively. […]

Each structure is given as a SMILES string.

A word on the CC50: it is the concentration at which the toxic effect on the cells reaches its halfway point. Lower therefore signals greater toxicity to the cells.

Regarding `O=C(NCc1cccs1)c1nn2c(c1Cl)NC(c1ccco1)CC2C(F)(F)F` (stereo not drawn) [Compound 89652, 3-chloro-5-(furan-2-yl)-N-(thiophen-2-ylmethyl)-7-(trifluoromethyl)-4,5,6,7-tetrahydropyrazolo[L5-a]pyrimidine-2-carboxamide], the “chimeric APV23 viral infectivity” value in series [1] is listed as “unaffected”. Besides, the “potency in viral infectivity assays relative to HCV replicon assays” value in series [2] is reported as “significantly more potent”. Moreover, the “Log change in 3′NTR copies relative to 1.0% DMSO (GAPDH normalized)” value in series [2] (0.02 μM) is on record as −0.15; in series [2] (0.07 μM), −0.52; in series [2] (0.22 μM), −0.85; in series [2] (0.67 μM), −1.31; in series [2] (2 μM), −1.47. The “chimeric APV112 viral infectivity” value in series [2] (FIG. 5, sensitive genotype 1b NS4B region) was “reduced”. The cytotoxic concentration (CC50) with Huh7.5 cells is greater than 100 µM.
